Test results published in BindingDB's records for doi:10.1016/j.bmcl.2004.03.096 (The University of Newcastle, 2004).

experiment: Concentration required against dynamin-1 GTPase activity of sheep brain.

Going from CCCCCCCCCCCCCCN to NCCCCCCCCCCCCN [1,12-diaminododecane], the IC50 rises from 14.9 µM to 39.6 µM (2.7-fold).

First: CCCCCCCCCCCCCCOC(CN)CN [2-Tetradecyloxy-propane-1,3-diammonium chloride]
Second: CCCCCCCCCCCCCCN [Tetradecylamine]
The IC50 of the first is 2.7-fold lower: 7.37 µM for the first, 20.2 µM for the second. The first is the more potent here.

CCCCCCCCCCCCCC[N+](C)(C)CCO [(2-Hydroxy-ethyl)-dimethyl-tetradecyl-ammonium; bromide] and CCCCCCCCCCCCCC[N+](C)(C)CCC [Dimethyl-propyl-tetradecyl-ammonium; bromide] are within 1.5-fold of each other in IC50: 9.36 µM for the first, 8.85 µM for the second.

Compared with CCCC/C=C\C/C=C\C/C=C\C/C=C\CCCC(=O)NCCF [(5Z,8Z,11Z,14Z)-Nonadeca-5,8,11,14-tetraenoic acid (2-fluoro-ethyl)-amide], CCCCCCCCCCCCC(=O)NCCN(C)C [Tridecanoic acid (2-dimethylamino-ethyl)-amide] is lower in IC50: over 300 µM for the first, 8.85 µM for the second. The second is the more potent here.

CCCCCCCCCCCCCC[N+](C)(C)CCCC [Butyl-dimethyl-tetradecyl-ammonium; bromide] and CCCCCCCCCCCC[N+](C)(C)CC [Dodecyl-ethyl-dimethyl-ammonium; bromide] are within 1.5-fold of each other in IC50: 8.02 µM for the first, 10.1 µM for the second.

CCCCCCCCCCCCCCCC[P+](CCCC)(CCCC)CCCC [Tributyl-hexadecyl-phosphonium; bromide] and CCCCCCCCCCCCCCCC[N+](CC)(CC)CC [Triethyl-hexadecyl-ammonium; bromide] are within 1.5-fold of each other in IC50: 10.2 µM for the first, 9.62 µM for the second.

Going from CCCCCCCCCCCCC(=O)OCCN(C)C [Tridecanoic acid 2-dimethylamino-ethyl ester] to CCCCCCCCCCCCCC[N+](CC)(CC)CC [Triethyl-tetradecyl-ammonium; bromide], the IC50 falls from 23 µM to 8.45 µM (2.7-fold).

experiment: as above; remark: another data set of the same source

Work on CCCCCCCCCCCCCCN yielded an IC50 of 8.74 µM.

experiment: Concentration required against dynamin-1 GTPase activity of sheep brain; increased dynamin I GTPase activity at 30 uM.

Molecule CCCC/C=C\C[C@@H](O)/C=C/C=C/C=C\[C@@H](O)CCCC(=O)O [(6Z,8E,10E,14Z)-(5S,12R)-5,12-Dihydroxy-nonadeca-6,8,10,14-tetraenoic acid] has an IC50 of over 300 µM.
